Test results: patent US20230151034A1 (COCRYSTAL PHARMA, INC., priority 2020, published 2023)

Each compound was assayed against SARS2 protease (Severe acute respiratory syndrome coronavirus 2, UniProt P0DTD1) (assay: SARS-CoV-2 protease inhibition assay (SARS2 FRET protease assay)). Details: Table E; SARS-CoV-2 protease inhibition; read-out: IC50.
Assay type: biochemical
Method: Viral protease assays: The antiviral activities of inhibitors were determined by FRET (Fluorescence Resonance Energy Transfer) assay. Purified viral protease was incubated with the protease substrate peptide (Edans-DFHLQ/GP-Dabcyl) and inhibitor, and IC50 values were subsequently determined by the fluorescence signals.
The SARS2 FRET protease assay was performed in 20 mM HEPES-Na pH 7, 120 mM NaCl, 0.4 mM EDTA, 0.01% Triton, 5% glycerol, and 4 mM DTT. A self-quenching peptide substrate 5-FAM-TSA VLQ SGF RKK (5TAMRA)-NH2 was custom synthesized by Anaspec. Compounds were diluted in 3-fold serial dilutions to final concentrations of 20 μM to 1.0 nM. SARS2 protease was added to a final concentration of 25 nM, depending on the enzyme activity level, and the peptide substrate was added to a final concentration of 1.3 μM. The assay was incubated 30 minutes at 30° C. and read in a Perkin Elmer Envision with excitation at 473 nm and emission measurement at 519 nm.

SMILES	IC50 [µM]
CON(C)C(=O)[C@@H]1CC(C(=O)N(C)C)C/C=C/CCC(Cc2ccccc2)OC(=O)NC(CC(C)C)C(=O)N1 (stereo in doubt) [Compound B31, (4S,7S)-15-Benzyl-4-isobutyl-N7-methoxy-N7,N9,N9-trimethyl-2,5-dioxo-1-oxa-3,6-diazacyclopentadec-11-ene-7,9-dicarboxamide]	> 200
CC(C)CC1NC(=O)OC(Cc2ccccc2)CC/C=C/CC(C(=O)N(C)C)CC(C=O)NC1=O (stereo in doubt) [Compound B38, (4S,7S)-15-Benzyl-7-formyl-4-isobutyl-N,N-dimethyl-2,5-dioxo-1-oxa-3,6-diazacyclopentadec-11-ene-9-carboxamide]	137
CC(C)C[C@@H]1NC(=O)OC(Cc2ccccc2)CCCCCC(C(=O)N(C)C)CC(C=O)NC1=O (stereo in doubt) [Compound B44, (4S,7S)-15-benzyl-7-formyl-4-isobutyl-N,N-dimethyl-2,5-dioxo-1-oxa-3,6-diazacyclopentadecane-9-carboxamide]	185
CON(C)C(=O)[C@H](CCC(=O)N(C)C)NC(=O)[C@H](CC1CCCCC1)NC(=O)OCc1cccc(Cl)c1 [Compound A3, 3-Chlorobenzyl ((S)-3-cyclohexyl-1-(((S)-5-(dimethylamino)-1-(methoxy (methyl)amino)-1,5-dioxopentan-2-yl)amino)-1-oxopropan-2-yl)carbamate]	> 200
CCCCCCCCC(=O)N[C@@H](CC(C)C)C(=O)NC1(C)CCC(=O)N(C)C1(O)C(=O)NC(C)C (stereo partly drawn) [Compound A5, 2-hydroxy-N-isopropyl-1,3-dimethyl-3-((S)-4-methyl-2-nonanamidopentanamido)-6-oxopiperidine-2-carboxamide]	> 200
CCNC(=O)CN(C)C(=O)CC[C@H](NC(=O)[C@H](CC1CCCCC1)NC(=O)OCc1cccc(Cl)c1)C(O)P(=O)(OCC)OCC (stereo partly drawn) [Compound A17, 3-Chlorobenzyl ((2S)-3-cyclohexyl-1-(((2S)-1-(diethoxyphosphoryl)-5-((2-(ethylamino)-2-oxoethyl) (methyl)amino)-1-hydroxy-5-oxopentan-2-yl)amino)-1-oxopropan-2-yl) carbamate]	169
CCOCCOCCN(C)C(=O)CC[C@H](NC(=O)[C@H](CC1CCCCC1)NC(=O)OCc1cccc(Cl)c1)C(=O)N(C)OC [Compound A20, 3-Chlorobenzyl ((13S,16S)-17-cyclohexyl-13-(methoxy(methyl)carbamoyl)-9-methyl-10,15-dioxo-3,6-dioxa-9,14-diazaheptadecan-16-yl)carbamate]	> 200
CCNC(=O)OCCN(C)C(=O)CC[C@H](NC(=O)[C@H](CC1CCCCC1)NC(=O)OCc1cccc(Cl)c1)C(=O)N(C)OC [Compound A21, 3-Chlorobenzyl ((12S,15S)-16-cyclohexyl-12-(methoxy(methyl)carbamoyl)-8-methyl-4,9,14-trioxo-5-oxa-3,8,13-triazahexadecan-15-yl)carbamate]	> 200
CON(C)C(=O)[C@H](CCC(=O)N(C)CCc1cccc(Cl)c1)NC(=O)[C@H](CC1CCCCC1)NC(=O)OCc1cccc(Cl)c1 [Compound A23]	> 200
CN(CCc1ccccc1)C(=O)CC[C@@H](CO)NC(=O)[C@H](CC1CCCCC1)NC(=O)OCc1cccc(Cl)c1 [Compound A26, 3-chlorobenzyl ((S)-3-cyclohexyl-1-(((S)-1-hydroxy-5-(methyl(phenethyl)amino)-5-oxopentan-2-yl)amino)-1-oxopropan-2-yl)carbamate]	14.7
CCNC(=O)OCCN(C)C(=O)CC[C@H](NC(=O)[C@H](CC1CCCCC1)NC(=O)OCc1cccc(Cl)c1)C(O)P(=O)(OCC)OCC (stereo partly drawn) [Compound A28, 3-Chlorobenzyl ((12S,15S)-16-cyclohexyl-12-((diethoxyphosphoryl)(hydroxy)methyl)-8-methyl-4,9,14-trioxo-5-oxa-3,8,13-triazahexadecan-15-yl)carbamate]	> 200
CCOC(=O)NCCN(C)C(=O)CC[C@H](NC(=O)[C@H](CC1CCCCC1)NC(=O)OCc1cccc(Cl)c1)C(O)P(=O)(OCC)OCC (stereo partly drawn) [Compound A31, 3-Chlorobenzyl ((12S,15S)-16-cyclohexyl-12-((diethoxyphosphoryl)(hydroxy)methyl)-8-methyl-4,9,14-trioxo-3-oxa-5,8,13-triazahexadecan-15-yl)carbamate]	46
CCOP(=O)(OCC)C(O)[C@H](CCC(=O)N(C)CCc1cccc(Cl)c1)NC(=O)[C@H](CC1CCCCC1)NC(=O)OCc1cccc(Cl)c1 (stereo partly drawn) [Compound A34, 3-Chlorobenzyl ((2S)-1-(((2S)-5-((3-chlorophenethyl)(methyl)amino)-1-(diethoxyphosphoryl)-1-hydroxy-5-oxopentan-2-yl)amino)-3-cyclohexyl-1-oxopropan-2-yl)carbamate]	> 200
CCOP(=O)(OCC)C(O)[C@H](CCC(=O)N(C)CCc1ccccc1Cl)NC(=O)[C@H](CC1CCCCC1)NC(=O)OCc1cccc(Cl)c1 (stereo partly drawn) [Compound A47, 3-Chlorobenzyl ((2S)-1-(((2S)-5-((2-chlorophenethyl)(methyl)amino)-1-(diethoxyphosphoryl)-1-hydroxy-5-oxopentan-2-yl)amino)-3-cyclohexyl-1-oxopropan-2-yl)carbamate]	> 200
CCOP(=O)(OCC)C(O)[C@H](CCC(=O)N(C)CCc1ccncc1)NC(=O)[C@H](CC1CCCCC1)NC(=O)OCc1cccc(Cl)c1 (stereo partly drawn) [Compound A51, 3-Chlorobenzyl ((2S)-3-cyclohexyl-1-(((2S)-1-(diethoxyphosphoryl)-1-hydroxy-5-(methyl (2-(pyridin-4-yl)ethyl)amino)-5-oxopentan-2-yl)amino)-1-oxopropan-2-yl) carbamate]	> 200
CCOP(=O)(OCC)C(O)[C@H](CCC(=O)N1CCCCc2ccccc21)NC(=O)[C@H](CC1CCCCC1)NC(=O)OCc1cccc(Cl)c1 (stereo partly drawn) [Compound A55, 3-Chlorobenzyl ((2S)-3-cyclohexyl-1-(((2S)-1-(diethoxyphosphoryl)-1-hydroxy-5-oxo-5-(2,3,4,5-tetrahydro-1H-benzo[b]azepin-1-yl)pentan-2-yl)amino)-1-oxopropan-2-yl)carbamate]	> 200
CCNC(=O)NCCN(C)C(=O)CC[C@@H](CO)NC(=O)[C@H](CC1CCCCC1)NC(=O)OCc1cccc(Cl)c1 [Compound A100, 3-Chlorobenzyl ((12S,15S)-16-cyclohexyl-12-(hydroxymethyl)-8-methyl-4,9,14-trioxo-3,5,8,13-tetraazahexadecan-15-yl)carbamate]	> 200
CCNC(=O)OCCN(C)C(=O)CC[C@@H](CO)NC(=O)[C@H](CC1CCCCC1)NC(=O)OCc1cccc(Cl)c1 [Compound A101, 3-Chlorobenzyl ((12S,15S)-16-cyclohexyl-12-(hydroxymethyl)-8-methyl-4,9,14-trioxo-5-oxa-3,8,13-triazahexadecan-15-yl)carbamate]	> 200
CCOP(=O)(OCC)C(O)[C@H](CCC(=O)N(C)CC(C)c1ccccc1)NC(=O)[C@H](CC1CCCCC1)NC(=O)OCc1cccc(Cl)c1 (stereo partly drawn) [Compound A102, 3-Chlorobenzyl ((2S)-3-cyclohexyl-1-(((2S)-1-(diethoxyphosphoryl)-1-hydroxy-5-(methyl(2-phenylpropyl)amino)-5-oxopentan-2-yl)amino)-1-oxopropan-2-yl)carbamate]	> 200
CCOP(=O)(OCC)C(O)[C@H](CC(C)C(=O)N(C)CCc1ccccc1)NC(=O)[C@H](CC1CCCCC1)NC(=O)OCc1cccc(Cl)c1 (stereo partly drawn) [Compound A104, 3-Chlorobenzyl ((2S)-3-cyclohexyl-1-(((2S)-1-(diethoxyphosphoryl)-1-hydroxy-4-methyl-5-(methyl (phenethyl)amino)-5-oxopentan-2-yl)amino)-1-oxopropan-2-yl)carbamate]	> 200
CCOP(=O)(OCC)C(O)[C@H](CCC(=O)N1CCCC(c2ccccc2)C1)NC(=O)[C@H](CC1CCCCC1)NC(=O)OCc1cccc(Cl)c1 (stereo partly drawn) [Compound A106, 3-Chlorobenzyl ((2S)-3-cyclohexyl-1-(((2S)-1-(diethoxyphosphoryl)-1-hydroxy-5-oxo-5-(3-phenylpiperidin-1-yl)pentan-2-yl)amino)-1-oxopropan-2-yl)carbamate]	> 200
CCCCCCCCC(=O)N[C@@H](CC(C)C)C(=O)N[C@H](CO)CCC(=O)NC [Compound A110, N—((S)-1-(((S)-1-hydroxy-5-(methylamino)-5-oxopentan-2-yl)amino)-4-methyl-1-oxopentan-2-yl)nonanamide]	> 200
CCCCCCCCC(=O)N[C@@H](CC(C)C)C(=O)N[C@@H](CCC(=O)NC)CSSC[C@H](CCC(=O)NC)NC(=O)[C@H](CC(C)C)NC(=O)CCCCCCCC [Compound A111, N,N′-((2S,2'S)-(((2S,2'S)-disulfanediylbis(5-(methylamino)-5-oxopentane-1,2-diyl))bis(azanediyl))bis(4-methyl-1-oxopentane-1,2-diyl))dinonanamide]	> 200
CCCCCCCCC(=O)N[C@@H](CC(C)C)C1=NC(CCC(=O)NC)CO1 (stereo partly shown) [Compound A112, N-((1 S)-3-methyl-1-(4-(3-(methylamino)-3-oxopropyl)-4,5-dihydrooxazol-2-yl)butyl)nonanamide]	> 200
CC(C)C[C@@H]1NC(=O)C(Cc2ccccc2)CCCC/C=C/CC2CC(NC1=O)C(O)N(C)C2=O (stereo partly drawn) [Compound B21, (4S,E)-7-benzyl-18-hydroxy-4-isobutyl-17-methyl-2,5,17-triazabicyclo[13.3.1]nonadec-12-ene-3,6,16-trione]	89.8
